Here are results for 24 compounds from ChEMBL document CHEMBL1649339, “Abietane and C20-norabietane diterpenes from the stem bark of Fraxinus sieboldiana and their biological activities” (J Nat Prod, 2010).

Experiment [1] relates to Bel-7402. Briefly: Cytotoxicity against human Bel7402 cells after 24 hrs by MTT assay. To be noted: Bel-7402, 24 h. The class given is functional, cell-based. Background: Tetrazolium assays rely on reduction of a dye to a coloured formazan, in cell work by metabolically active cells.
Experiment [2] relates to A2780. Briefly: cells. The settings on record: Homo sapiens, A2780, 24 h.
Description: Cytotoxicity against human A2780 cells after 24 hrs by MTT assay
Experiment [3] relates to HCT-8. Briefly: Cytotoxicity against human HCT8 cells after 24 hrs by MTT assay. The class given is functional, cell-based. The settings on record: HCT-8, 24 h.
Experiment [4] deals with BGC-823. Briefly: Cytotoxicity against human BGC823 cells after 24 hrs by MTT assay. The class given is functional, cell-based. To be noted: BGC-823, 24 h.
For experiment [5], the system named is A549. Briefly: Cytotoxicity against human A549 cells after 24 hrs by MTT assay. To be noted: A549, 24 h. The class given is functional, cell-based.
Experiment [6] in a line: Antiinflammatory activity in PAF-induced rat Polymorphonuclear leukocyte assessed as inhibition of beta-glucuronidase release at 10^-5 M. The class given is functional.
The subject of experiment [7] is Influenza A virus. Briefly: microbe, parasite or virus in culture. The class given is functional, organism-based. The settings on record: HEK-293T.

One may read the pIC50 as −log10 of the IC50, conventionally taken in molar units. Low values mean a high IC50, high ones a low IC50. Usually inhibition stands for how much of the control response was suppressed.

pIC50: −log10 of the molar value.

Consider `CCO[C@@H]1OC[C@@]2(C)CCC[C@@]13c1cc(O)c(C(C)C)cc1C(=O)C[C@@H]23`, for which the pIC50 in experiment [1], in experiment [2], in experiment [3], in experiment [4] and in experiment [5] was under 5.00 each time.

As for `CC(C)c1cc2c(cc1O)[C@@]1(O)CCCC(C)(C)[C@@H]1CC2=O`, the negative-log IC50 (pIC50) in experiment [1], in experiment [2], in experiment [3], in experiment [4] and in experiment [5] was under 5.00 in each case.

Regarding `CC(C)C1=C[C@]2(O)CC[C@H]3[C@]4(C)CCC[C@]3(C(=O)OC4)C2=CC1=O`, the pIC50 in experiment [1], in experiment [2], in experiment [3], in experiment [4] and in experiment [5] was under 5.00 in each case.

`CC(C)C1=C[C@]23CC[C@H]4[C@]5(C)CCC[C@@]4(C2=CC1=O)[C@@H](OC5)O3`: the negative-log IC50 (pIC50) in experiment [1], in experiment [2], in experiment [3], in experiment [4] and in experiment [5] was under 5.00 in each case.

Turning to `CC(C)C1=C[C@]23O[C@H]2[C@H]2OC(=O)[C@@]4(CCCC(C)(C)[C@H]24)C3=CC1=O`, the negative-log IC50 (pIC50) in experiment [1] is under 5.00; in experiment [2] it was 5.77; in experiment [3] it was under 5.00; in experiment [4] it was under 5.00; in experiment [5], under 5.00.

Regarding `CC(C)c1cc2c(cc1O)[C@]13CCC[C@](C)(COC1=O)[C@@H]3CC2`, the pIC50 in experiment [1], in experiment [2], in experiment [3], in experiment [4] and in experiment [5] was under 5.00 each time.

Consider `CC(C)c1cc2c(cc1O)[C@@]13CCCC(C)(C)[C@@H]1[C@H](OC3=O)[C@@H]2O`, for which the negative-log IC50 (pIC50) is under 5.00 in experiment [1]; under 5.00 in experiment [2]; under 5.00 in experiment [3]; under 5.00 in experiment [4]; 5.22 in experiment [5].

`CC(C)c1cc2c(cc1O)[C@@]13CCCC(C)(C)[C@@H]1[C@H](OC3=O)[C@H]2O`: the pIC50 in experiment [1], in experiment [2], in experiment [3], in experiment [4] and in experiment [5] was under 5.00 in each case.

For the compound `CC(C)c1cc2c(cc1O)[C@@]13CCCC(C)(C)[C@@H]1[C@H](OC3=O)C2=O`, the pIC50 in experiment [1], in experiment [2], in experiment [3], in experiment [4] and in experiment [5] was under 5.00 throughout.

`CC(C)c1cc2c(cc1O)[C@]13CCC[C@]4(C)CO[C@@H]1O[C@H]2C[C@@H]43`: the pIC50 in experiment [1], in experiment [2], in experiment [3], in experiment [4] and in experiment [5] was under 5.00 in each case. Further, the inhibition at 10 µM in experiment [6] came out at 59.7%.

In the case of `CC(C)c1cc2c(cc1O)[C@]13CCC[C@](C)(CO[C@H]1O)[C@@H]3CC2`, the pIC50 in experiment [1], in experiment [2], in experiment [3], in experiment [4] and in experiment [5] was under 5.00 in each case.

As for `CC(C)c1cc2c(cc1O)[C@]13CCC[C@](C)(CO[C@@H]1O)[C@@H]3CC2`, the negative logarithm of the IC50 (pIC50) in experiment [1], in experiment [2], in experiment [3], in experiment [4] and in experiment [5] was under 5.00 throughout.

As for `CO[C@@H]1OC[C@@]2(C)CCC[C@@]13c1cc(O)c(C(C)C)cc1CC[C@@H]23`, the pIC50 in experiment [1], in experiment [2], in experiment [3], in experiment [4] and in experiment [5] was under 5.00 in each case.

As for `CO[C@H]1OC[C@@]2(C)CCC[C@@]13c1cc(O)c(C(C)C)cc1CC[C@@H]23`, the negative-log IC50 (pIC50) in experiment [1], in experiment [2], in experiment [3], in experiment [4] and in experiment [5] was under 5.00 throughout.

With `CCO[C@@H]1OC[C@@]2(C)CCC[C@@]13c1cc(O)c(C(C)C)cc1CC[C@@H]23`, the pIC50 in experiment [1], in experiment [2], in experiment [3], in experiment [4] and in experiment [5] was under 5.00 each time.

For the compound `CC(C)c1cc2c(cc1O)[C@H]1CCCC(C)(C)[C@@H]1CC2=O`, the negative-log IC50 (pIC50) in experiment [1], in experiment [2], in experiment [3], in experiment [4] and in experiment [5] was under 5.00 throughout. For the same compound, in experiment [6], the inhibition at 10 µM worked out at 56.1%.

Turning to `CC(C)c1cc2c(cc1O)[C@@]1(O)CCC[C@](C)(CO)[C@@H]1CC2=O`, the pIC50 in experiment [1], in experiment [2], in experiment [3], in experiment [4] and in experiment [5] was under 5.00 in each case.

As for `CC(C)c1cc2c(cc1O)C1=C(CC2)C(C)(C)CC[C@H]1O`, the pIC50 in experiment [1], in experiment [2], in experiment [3], in experiment [4] and in experiment [5] was under 5.00 each time.

On to `CC(C)c1cc2ccc3c(c2cc1O)C(=O)CCC3(C)C`, for which the negative-log IC50 (pIC50) in experiment [1], in experiment [2], in experiment [3], in experiment [4] and in experiment [5] was under 5.00 each time.

Consider `CC(C)c1cc2c(cc1O)C1=CC(=O)CC(C)(C)[C@@H]1CC2`, for which the pIC50 in experiment [1], in experiment [2], in experiment [3], in experiment [4] and in experiment [5] was under 5.00 throughout.

Take `CCO[C@@H]1C[C@@H]2C(=CC(=O)CC2(C)C)c2cc(O)c(C(C)C)cc21`: the pIC50 in experiment [1], in experiment [2], in experiment [3], in experiment [4] and in experiment [5] was under 5.00 in each case.

On to `CC(C)c1cc2c(cc1O)[C@@]1(C=O)CCCC(C)(C)[C@@H]1CC2`, for which the pIC50 in experiment [1], in experiment [3], in experiment [4] and in experiment [5] was under 5.00 each time. Also, the inhibition at 10 µM in experiment [6] amounted to 65.9%.

In the case of `CC(C)c1ccc2c(c1)C(=O)C[C@H]1C(C)(C)CCC[C@]21C`, the pIC50 is 5.32 in experiment [7]; under 5.00 in experiment [1]; under 5.00 in experiment [2]; under 5.00 in experiment [3]; under 5.00 in experiment [4]; under 5.00 in experiment [5].

For the compound `CC[C@@]1(O)C(=O)OCc2c1cc1n(c2=O)Cc2cc3ccccc3nc2-1` [CAMPTOTHECIN], the pIC50 is 6.70 in experiment [2] and 5.44 in experiment [5].
